Consider eleven molecules from US4259345A, “2-(Imidazol-1-ylmethyl)pyrroles” (Pfizer Inc., priority 1979, dated 1981).

Where only a bound is given, the exact number is not on record here.

For assay [1], the target named is T1, Thromboxane A2 (TxA2) Synthetase (Homo sapiens, UniProt P24557).
T1 construct: Indomethacin pretreated human platelet microsomes; from tissue; host or cells: human platelets (microsomes)
T1 sequence (P24557 1-533): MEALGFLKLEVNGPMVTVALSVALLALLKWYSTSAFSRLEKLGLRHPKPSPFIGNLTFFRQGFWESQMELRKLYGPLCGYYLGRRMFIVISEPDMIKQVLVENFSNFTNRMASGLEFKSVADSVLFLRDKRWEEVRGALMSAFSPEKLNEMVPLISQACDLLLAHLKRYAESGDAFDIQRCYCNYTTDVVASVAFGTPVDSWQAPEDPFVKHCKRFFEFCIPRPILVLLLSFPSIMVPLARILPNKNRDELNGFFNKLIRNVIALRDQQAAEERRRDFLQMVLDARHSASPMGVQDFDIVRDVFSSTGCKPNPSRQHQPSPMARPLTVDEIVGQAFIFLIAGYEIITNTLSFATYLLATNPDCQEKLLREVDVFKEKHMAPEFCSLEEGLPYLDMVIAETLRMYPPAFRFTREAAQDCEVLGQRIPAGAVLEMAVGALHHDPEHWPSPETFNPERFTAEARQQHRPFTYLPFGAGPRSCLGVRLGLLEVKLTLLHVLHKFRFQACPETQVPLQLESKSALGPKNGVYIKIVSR
Nature of the assay: Thromboxane A2 (TxA2) synthetase inhibition in vitro (isometric tension of rabbit aorta spirals). It counts as biochemical. As to conditions: Indomethacin pretreated human platelet microsomes; PGH2 substrate, 2 min, 0° C; 5 min pre-incubation; read-out: Molar concentration causing 50% inhibition of TxA2 Synthetase. On the procedure: (§1) The effect of the compounds of the formula (I) on the thromboxane synthetase enzyme, and the prostacyclin synthetase and cyclo-oxygenase enzyme has been measured by the following in vitro enzyme assays:
3. Thromboxane A2 (TxA2) Synthetase
Indomethacin pretreated human platelet microsomes (Science 1976, 193, 163) are incubated (2 min.: 0° C.) with PGH2 (produced as in 1) and aliquots of the reaction mixture superfused over two rabbit aorta spirals which are separated by a delay coil (2 min.). The latter is required to allow the selective decay of the more unstable thromboxane A2 (Proc. Nat. Acad. Sci., 1975, 72, 2994) thereby enabling the separate measurement of increased isometric tension due to the TxA2 formed and the PGH2 remaining. The test compound is pre-incubated with the enzyme for 5 minutes, and its ability to inhibit the thromboxane synthetase enzyme is measured as its reduction of the TxA2 component of the isometric tension.
(§2) The results of these tests are shown in the following Table, which gives the molar concentration of each compound which caused a 50% change in the effect of the relevant enzyme on isometric tension, i.e. caused a 50% inhibition of the action of that enzyme.

Assay [2] addresses T2, Prostacyclin (PGI2) Synthetase (Sus scrofa, UniProt A0A5G2QT35).
T2 construct: Pig aorta microsomes; from tissue; host or cells: pig aorta (microsomes)
T2 sequence (A0A5G2QT35 1-497): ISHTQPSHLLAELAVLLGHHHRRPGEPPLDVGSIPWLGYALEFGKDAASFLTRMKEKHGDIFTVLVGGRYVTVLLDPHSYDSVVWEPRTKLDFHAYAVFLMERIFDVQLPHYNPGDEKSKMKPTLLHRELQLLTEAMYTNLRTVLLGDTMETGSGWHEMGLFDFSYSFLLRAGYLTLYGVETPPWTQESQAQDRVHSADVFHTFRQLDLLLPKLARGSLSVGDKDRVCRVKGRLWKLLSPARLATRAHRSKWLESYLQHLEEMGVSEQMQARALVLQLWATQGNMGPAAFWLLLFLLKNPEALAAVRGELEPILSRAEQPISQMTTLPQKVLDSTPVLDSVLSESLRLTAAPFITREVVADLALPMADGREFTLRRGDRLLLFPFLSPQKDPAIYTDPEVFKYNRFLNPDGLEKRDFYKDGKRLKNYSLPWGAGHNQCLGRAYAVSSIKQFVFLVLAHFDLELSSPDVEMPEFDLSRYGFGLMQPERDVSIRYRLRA
The assay can be described thus: Prostacyclin (PGI2) synthetase inhibition in vitro (isometric tension of rabbit aorta strip). It counts as biochemical. As to conditions: pig aorta microsomes; PGH2 substrate, 30 sec, 22° C; 5 min pre-incubation; read-out: Molar concentration causing 50% inhibition of PGI2 Synthetase. On the procedure: as §1
2. Prostacyclin (PGI2) Synthetase
Pig aorta microsomes (Nature, 1976, 263, 663) are incubated (30 sec.; 22° C.) with PGH2 produced as in 1) and aliquots bio-assayed as in 1. […] The test compound is then pre-incubated with the enzyme for 5 minutes, and its ability to prevent the decrease in tension is measured.
as §2

In the next assay the target is T3, Cyclo-oxygenase (Ovis aries, UniProt P05979).
T3 construct: Ram seminal vesicle microsomes; from tissue; host or cells: ram seminal vesicle (microsomes)
T3 sequence (P05979 25-600): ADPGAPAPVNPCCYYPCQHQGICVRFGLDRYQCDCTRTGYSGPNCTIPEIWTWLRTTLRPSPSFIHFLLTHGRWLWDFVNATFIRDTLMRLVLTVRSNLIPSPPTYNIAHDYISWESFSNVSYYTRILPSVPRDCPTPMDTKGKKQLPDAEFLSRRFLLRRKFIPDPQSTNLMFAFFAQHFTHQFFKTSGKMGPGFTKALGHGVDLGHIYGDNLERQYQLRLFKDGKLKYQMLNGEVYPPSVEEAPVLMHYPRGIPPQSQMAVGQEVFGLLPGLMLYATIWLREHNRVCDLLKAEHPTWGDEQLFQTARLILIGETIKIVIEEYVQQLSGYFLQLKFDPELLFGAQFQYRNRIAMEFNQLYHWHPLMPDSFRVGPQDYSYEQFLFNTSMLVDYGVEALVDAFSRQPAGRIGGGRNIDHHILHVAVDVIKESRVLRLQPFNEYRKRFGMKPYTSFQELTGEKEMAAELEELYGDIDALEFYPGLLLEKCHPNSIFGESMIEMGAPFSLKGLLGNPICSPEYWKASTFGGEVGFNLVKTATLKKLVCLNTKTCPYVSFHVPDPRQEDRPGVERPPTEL
The assay can be described thus: Cyclo-oxygenase inhibition in vitro (isometric tension of rabbit aorta strip). It counts as biochemical. Particulars: ram seminal vesicle microsomes; arachidonic acid 100 μM, 1 min, 22°; 5 min pre-incubation; read-out: Molar concentration causing 50% inhibition of Cyclo-oxygenase. On the procedure:
as §1
Ram seminal vesicle microsomes (Biochemistry, 1971, 10, 2372) are incubated with arachidonic acid (100 μM: 1 min.: 22°) to produce PGH2 and aliquots of the reaction mixture injected into a stream of Krebs-bicarbonate at 37° C. (containing a mixture of antagonists (Nature, 1978, 218, 1135) and indomethacin (Brit. J. Pharmacol., 1972, 45, 451)) which is superfusing a spirally-cut rabbit aorta strip (Nature, 1969, 223, 29). The ability of a compound to inhibit the enzyme is measured by comparing the increases in isometric tension produced by PGH2 in the absence of the test compound, and following pre-incubation of the enzyme with the test compound for 5 minutes.
as §2

Assay [3] concerns the target T2, Prostacyclin (PGI2) Synthetase. Particulars: pre-incubation with pig aorta microsome enzyme; literature; cited from earlier work.
The subject of the next assay is cyclo-oxygenase enzyme. As to conditions: background statement; cited from earlier work.
Assay [4] concerns lethal effect of arachidonic acid injection. As to conditions: intravenous arachidonic acid; literature; cited from earlier work.
Assay [5] relates to human blood platelet aggregation. Particulars: human blood platelets, variety of aggregating agents; literature; cited from earlier work.
Assay [6] deals with aggregation of platelets in the rat aorta. As to conditions: rats in vivo; literature; cited from earlier work.

Take `c1cc(Cn2ccnc2)n(C2CCCCC2)c1`: the IC50 in assay [1] came out at 0.62 µM. Turning to `c1ccc(-n2cccc2Cn2ccnc2)cc1`, the IC50 in assay [2] was found to be 6.5 µM; in assay [1] it was 0.0019 µM. For the molecule `c1ccc(Cn2cccc2Cn2ccnc2)cc1`, the IC50 in assay [1] was found to be 1.7 µM. With `CCOC(=O)c1ccc(Cn2cccc2Cn2ccnc2)cc1`, the IC50 in assay [2] was 22 µM; in assay [1], 0.0024 µM. For `O=C(O)c1ccc(Cn2cccc2Cn2ccnc2)cc1`, the IC50 at Cyclo-oxygenase is over 100 µM; in assay [2], 100 µM; in assay [1] it was 0.0034 µM.

For `O=C(c1ccccc1)n1cccc1Cn1ccnc1`, the values for the IC50 in assay [2] and in assay [1] were 35 µM and 0.0049 µM, respectively. As to `CCCCCC(/C=C/C=C\C/C=C\C/C=C\CCCC(=O)O)OO` (centres unmarked) [15-hydroperoxy-arachidonic acid], the “prevention of the PGI2-induced decrease in tension (PGI2 synthetase inhibition)” value in assay [3] is given as “prevented completely”. As for `O=C(O)CCn1cccc1Cn1ccnc1` [CH2 CH2 CO2 H, 1-(2-Carboxyethyl)-2-(imidazol-1-ylmethyl)pyrrole], in assay [1], the IC50 is 0.18 µM. The same measure, in the same setting: under `C=CCn1cccc1Cn1ccnc1` [CH2 CHCH2] stands 0.15 µM. With `CC(=O)Oc1ccccc1C(=O)O` [aspirin], in the assay on cyclo-oxygenase enzyme, the “inhibition of the cyclo-oxygenase enzyme” value is recorded as “inhibit the cyclo-oxygenase enzyme”. In addition, the “protection from the lethal effect of arachidonic acid injection” value in assay [4] is recorded as “protect the rabbit from the lethal effect of the injection”. Further, the “inhibitory activity in vitro against aggregating agents” value in assay [5] is given as “show inhibitory activity in vitro”. Take `O=C1C(CC[S+]([O-])c2ccccc2)C(=O)N(c2ccccc2)N1c1ccccc1` (centres unmarked) [sulphinpyrazone]: in assay [4], the “protection from the lethal effect of arachidonic acid injection” value is given as “protect the rabbit from the lethal effect of the injection”. Besides, the “prevention of platelet aggregation in extra corporeal loop of the abdominal aorta” value in assay [6] is given as “prevent the aggregation of platelets”. For the same molecule, in assay [5], the “inhibitory activity in vitro against aggregating agents” value is reported as “show inhibitory activity in vitro”.
